This test concerns the target T1, recombinant human liver GK (Homo sapiens, UniProt P35557).
T1 construct: made in house; host or cells: E. coli
T1 sequence (P35557 1-466 isoform P35557-2): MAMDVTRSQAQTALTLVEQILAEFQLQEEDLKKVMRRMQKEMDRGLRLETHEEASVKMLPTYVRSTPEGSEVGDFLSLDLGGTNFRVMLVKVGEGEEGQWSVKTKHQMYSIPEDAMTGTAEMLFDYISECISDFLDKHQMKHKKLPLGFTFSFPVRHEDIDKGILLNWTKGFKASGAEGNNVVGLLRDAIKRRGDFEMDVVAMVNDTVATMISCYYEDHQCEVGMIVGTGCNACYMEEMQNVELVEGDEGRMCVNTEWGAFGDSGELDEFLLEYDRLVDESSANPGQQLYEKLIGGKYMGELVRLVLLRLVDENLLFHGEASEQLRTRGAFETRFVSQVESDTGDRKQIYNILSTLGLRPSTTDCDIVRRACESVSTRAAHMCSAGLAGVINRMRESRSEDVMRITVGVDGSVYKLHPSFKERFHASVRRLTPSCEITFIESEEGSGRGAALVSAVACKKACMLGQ
Nature of the test: glucokinase (GK) activation assay, Thio-NADH generation via reporter enzyme G6PDH, absorbance at 405 nm. The test is classed as biochemical. The note with it: final glucose concentration 2.5 mM, 30° C.; for EC50: GK activation; for Emax: OD value of DMSO control regarded as 100%. The protocol:
The glucokinase activity can be determined without directly measuring glucose-6-phosphate by measuring the amount of Thio-NADH generated during the production of phosphogluconolactone from glucose-6-phosphate by a reporter enzyme glucose-6-phosphate dehydrogenase. Thus, the degree of the glucokinase activity can be determined.
The recombinant human liver GK used in this assay expressed as a FLAG fusion protein in E. coli, was purified on […] M2 AFFINITY GEL (Sigma).
Assay was carried out at 30° C. in a 96-well plate. In the plate was distributed 69 μl each of assay buffer (25 mM Hepes Buffer: pH=7.2, 2 mM MgCl2, 1 mM ATP, 0.5 mM TNAD, 1 mM dithiothreitol), to which was added 1 μl of a DMSO solution of the compound or DMSO as control. Then, 20 μl of pre-ice-cooled enzyme mixture (FLAG-GK, 20 U/ml G6PDH) was distributed thereto, to which was added 10 μl of 25 mM glucose as substrate to initiate the reaction (final glucose concentration=2.5 mM).
FLAG-GK was added so that the increase of absorbance after 5 minutes fell between 0.05 to 0.1 in the presence of 1% DMSO.
The OD values of the respective compounds to be evaluated were measured in the respective concentrations, wherein the OD value of DMSO as control was regarded as 100%. From the OD values at the respective concentrations, Emax (%) and EC50 (μM) were calculated and used as indicators of the GK activation capability of the compounds. According to the above assay, the GK activation capability of the compounds in the present invention was determined.

These results are taken from US8344003B2, “2-pyridinecarboxamide derivatives” (MSD K. K., priority 2003, dated 2013).

Structures are written as SMILES.

`COc1ccc(Sc2ccc(Sc3nnc[nH]3)nc2C(=O)Nc2nccs2)cc1` [Production Example 1]: the EC50 was 50 nM and the Emax was determined as 997%.
As to `Cc1ccc(Sc2ccc(Sc3nnc[nH]3)nc2C(=O)Nc2nccs2)cn1` [Production Example 30, 3-(6-methyl-pyridine-3-yl-sulfanyl)-6-(4H-[1,2,4]triazole-3-yl-sulfanyl)-N-(thiazole-2-yl)-2-pyridine carboxamide], the EC50 stood at 120 nM and the Emax came to 818%.
